Entries after “also recorded” stand apart in the source; their conditions may differ.
Legend:
[1] = test system: ANV-1 breast cancer cells with CSC-like property; assay: MTS viability assay on ANV-1 breast cancer cells; format: cell-based, mouse
Procedure: The % of viabilities of treated cells (Y-axis) were calculated with respect to untreated cells [* denotes p<0.001 between DX-ESC8+NRP-1 group with other groups]
Cells were treated with a) DX-nutilin+NRP-1 ShRNA plasmid, b) DX-nutilin+control plasmid, c) DX+NRP-1 ShRNA plasmid, d) nutilin as free drug. The treatments were done in two different conditions, a) continuous treatment for 48 h by the respective formulations with […] effective nutilin concentration; b) treatment for only 4 h by respective formulations with […] effective nutilin concentrations. The % viabilities of treated cells (Y-axis) were calculated with respect to untreated cells.
(§1) Cancer cells (ANV-1, PANC-1, ASPC-1) were inoculated at a concentration of 5000 cells/well of 96-well cell culture plates in 10% Fetal Calf serum (FCS) containing DMEM media. Following an incubation of minimum of 16 h at 37° C., the cells were treated in triplicate with respective lipoplexes (DX-ESC8, DO-ESC8, DX,) pre-complexed with 0.3 μg of NRP-1 or control plasmid amounts per well as discussed in Example 1. The cells were also treated with naked liposomes with or without ESC8 or free drug, ESC8, in a final volume of 300 μl (volume made up with 10% FCS containing DMEM media) continuously for 48 h (mostly) or 72 h. […] Thereafter cells were assayed for viability using MTS assay kit (Promega) following manufacturer's protocol.
For cells treated with DX-nutilin, the test solutions were: a) DX-nutilin pre-complexed with 0.3 µg of NRP-1 Sh-RNA plasmid, b) […] pre-complexed with 0.3 µg control plasmid, c) DX liposome pre-complexed with 0.3 µg NRP-1 Sh-RNA plasmid, d) only […] addition.

[2] = test system: ASPC-1 pancreatic cancer cells; assay: MTS viability assay on ASPC-1 pancreatic cancer cells; format: cell-based, human; conditions: 48 h or 72 h continuous treatment, ESC8 5 μM
Procedure: Cells were treated for 48 h with a) DX-ESC8+NRP-1 ShRNA plasmid, b) DX-ESC8+control plasmid, c) DO-ESC8+NRP-1 ShRNA plasmid, d) DX+NRP-1 ShRNA plasmid, followed by ESC8 treatment e) ESC8, as free drug at the drug concentration of 5 μM in either naked or respective formulated state. The % of viabilities of treated cells (Y-axis) were calculated with respect to untreated cells [* denotes p<0.01 between DX-ESC8 lipoplex groups with other groups].
Cells were treated for 72 h with a) DX-ESC8+NRP-1 ShRNA plasmid, b) DX-ESC8+control plasmid, c) DX+NRP-1 ShRNA plasmid, d) DO+NRP-1 ShRNA plasmid e) ESC8, as free drug at the drug concentration of 5 μM in either naked or respective formulated state. For groups c and d the liposome concentrations of DX or DO were equivalent to the corresponding liposome concentration in DX-ESC8 containing 5 μM ESC8. The % of viabilities of treated cells (Y-axis) were calculated with respect to untreated cells [* denotes p<0.01 between DX-ESC8 lipoplex groups or DX+NRP-1 ShRNA plasmid group with other groups].
Cancer cells (ANV-1, PANC-1, ASPC-1) were inoculated at a concentration of 5000 cells/well of 96-well cell culture plates in 10% Fetal Calf serum (FCS) containing DMEM media. […]

[3] = test system: PANC-1 pancreatic cancer cells; assay: MTS viability assay on PANC-1 pancreatic cancer cells; format: cell-based, human; conditions: 48 h, ESC8 5 or 2.5 μM
Procedure: Cells were treated for 48 h with a) DX-ESC8+NRP-1 ShRNA plasmid, b) DX-ESC8+control plasmid, c) DO-ESC8+NRP-1, d) DO-ESC8+control plasmid e) ESC8, as free drug at the drug concentrations of 5 or 2.5 μM in either naked or respective formulated state. The % of viabilities of treated cells (Y-axis) were calculated with respect to untreated cells [* denotes p<0.01 between DX-ESC8 lipoplex groups with other groups].
as §1

CCCCCCCC[N+](C)(CCCCCCCC)CCC[C@]1(O)CC[C@H]2[C@@H]3CCc4cc(O)ccc4[C@H]3CC[C@@]21C [ESC8, 17-α-[3-(N,N-dioctyl,N-methyl-amino)-propan-1-yl]-17β-estradiol]
anticancer effect towards ANV-1 breast cancer cells ([1]; 48 h, ESC8 10 or 5 μM naked or formulated (FIG. 1)): very limited effect; also recorded: least anticancer effect | viability of ANV-1 cells ([1]; 48 h treatment, drug concentration 10 or 5 μM, with respect to untreated cells (FIG. 1)): 60-70% | ESC8 free drug concentration needed to get 95-100% of ANV-1 cell killing ([1]; 72 h treatment): at least 50 μM | visual effect on ANV-1 cells ([1]; shorter treatment time): no visual effect | killing / anticancer effect on ASPC-1 cells [2]: no anticancer effect; also recorded: least toxic effect | anti-cancer effect on PANC-1 cells [3]: no anticancer effect; also recorded: no toxicity
